Assay results: US10604512B2, “3-(1H-indol-2-yl)-1H-indazoles and therapeutic uses thereof” (Samumed, LLC, priority 2015, dated 2020)

Legend:
IL-6 = assay: Inhibition of IL-6 in LPS-stimulated THP-1 human monocyte cells (HTRF); format: cell-based; details: for EC50: IL-6 inhibition, LPS-stimulated THP-1 cells, HTRF; for inhibition at 10 µM: THP-1, printed beside >10 μM EC50, top concentration 10 μM, meaning not given, read-out: percentage in parentheses after EC50 >10
Summary of the method: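 THP-1 cells serum-reduced (1% FBS, 24 h), then 5000 cells/well preincubated 2 h with compound (10-point 1:3 series from 10 μM, 0.1% DMSO) before 500 ng/mL LPS for 22 h at 37 °C. Secreted IL-6 quantified by HTRF 665/620 ratio; DMSO-normalised duplicates fitted to four-parameter EC50; above 10 μM, % inhibition at 10 μM given.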

[1] = test system: Wnt activity (Sp5-Luc reporter, TCF/LEF binding sites) in SW480 colon carcinoma cells; assay: Screening assay for Wnt activity: Sp5-Luc reporter gene assay in stably transduced SW480 colon carcinoma cells; format: cell-based; details: Homo sapiens, overnight incubation, 10-point curve from 10 μM
Summary of the method: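 SW480 cells stably transduced with a luciferase reporter driven by an Sp5 promoter of eight TCF/LEF sites were plated at 4,000 cells/well in 1% FBS medium. They were exposed overnight at 37° C to a 10-point 1:3 dilution series from 10 μM (0.1% DMSO). Luminescence was normalized to DMSO for four-parameter EC50, or percent inhibition at 10 μM.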

Row | SMILES | EC50 (IL-6) [nM] | inhibition at 10 µM (IL-6) [%] | EC50 [1] [nM]
1 | O=C(Nc1cncc(-c2ccc3[nH]nc(-c4cc5c(-c6ccccn6)cccc5[nH]4)c3c2)c1)c1ccccc1 [Compound 151, N-(5-(3-(4-(Pyridin-2-yl)-1H-indol-2-yl)-1H-indazol-5-yl)pyridin-3-yl) benzamide] | > 10000 | 46.9 | 150
2 | c1ccc(-c2cccc3[nH]c(-c4n[nH]c5ccc(-c6cncc(CN7CCCC7)c6)cc45)cc23)nc1 [Compound 154, 3-(4-(Pyridin-2-yl)-1H-indol-2-yl)-5-(5-(pyrrolidin-1-ylmethyl)pyridin-3-yl)-1H-indazole] | 750 |  | 490
3 | c1ccc(-c2cccc3[nH]c(-c4n[nH]c5ccc(-c6ccncc6)cc45)cc23)nc1 [Compound 158, 3-(4-(Pyridin-2-yl)-1H-indol-2-yl)-5-(pyridin-4-yl)-1H-indazole] | 1580 |  | 4120
4 | CCCCC(=O)Nc1cncc(-c2ccc3[nH]nc(-c4cc5c(-c6ccccn6)cccc5[nH]4)c3c2)c1 [Compound 159, N-(5-(3-(4-(Pyridin-2-yl)-1H-indol-2-yl)-1H-indazol-5-yl)pyridin-3-yl) pentanamide] | > 10000 | 39.3 | 1670
5 | c1ccc(-c2cccc3[nH]c(-c4n[nH]c5ccc(-c6cncnc6)cc45)cc23)nc1 [Compound 167, 3-(4-(Pyridin-2-yl)-1H-indol-2-yl)-5-(pyrimidin-5-yl)-1H-indazole] | 979 |  | 1220
6 | CCC(=O)Nc1cncc(-c2ccc3[nH]nc(-c4cc5c(N6CCCCC6)cccc5[nH]4)c3c2)c1 [Compound 169, N-(5-(3-(4-(Piperidin-1-yl)-1H-indol-2-yl)-1H-indazol-5-yl)pyridin-3-yl) propionamide] | > 10000 | 41.7 | 1400
7 | CN(C)Cc1cncc(-c2ccc3[nH]nc(-c4cc5c(N6CCCCC6)cccc5[nH]4)c3c2)c1 [Compound 181, N,N-Dimethyl-1-(5-(3-(4-(piperidin-1-yl)-1H-indol-2-yl)-1H-indazol-5-yl)pyridin-3-yl)methanamine] | > 10000 | 40.7 | 575
8 | O=C(Nc1cncc(-c2ccc3[nH]nc(-c4cc5c(N6CCCCC6)cccc5[nH]4)c3c2)c1)C1CC1 [Compound 188, N-(5-(3-(4-(Piperidin-1-yl)-1H-indol-2-yl)-1H-indazol-5-yl)pyridin-3-yl) cyclopropanecarboxamide] | 5370 |  | 195
9 | FC1(F)CCN(Cc2cncc(-c3ccc4[nH]nc(-c5cc6c(N7CCCCC7)cccc6[nH]5)c4c3)c2)C1 [Compound 194, 5-(5-((3,3-Difluoropyrrolidin-1-yl)methyl)pyridin-3-yl)-3-(4-(piperidin-1-yl)-1H-indol-2-yl)-1H-indazole] | > 10000 | 29.2 | 750
10 | CN1CCN(c2cccc3[nH]c(-c4n[nH]c5ccc(-c6cncc(N)c6)cc45)cc23)CC1 [Compound 227, 5-(3-(4-(4-Methylpiperazin-1-yl)-1H-indol-2-yl)-1H-indazol-5-yl)pyridin-3-amine] | 1810 |  | 474
11 | CC(C)C(=O)Nc1cncc(-c2ccc3[nH]nc(-c4cc5c(N6CCN(C)CC6)cccc5[nH]4)c3c2)c1 [Compound 233, N-(5-(3-(4-(4-Methylpiperazin-1-yl)-1H-indol-2-yl)-1H-indazol-5-yl)pyridin-3-yl)isobutyramide] | 589 |  | 565
12 | CN1CCN(c2cccc3[nH]c(-c4n[nH]c5ccc(-c6cncc(CN7CCCCC7)c6)cc45)cc23)CC1 [Compound 239, 3-(4-(4-Methylpiperazin-1-yl)-1H-indol-2-yl)-5-(5-(piperidin-1-ylmethyl)pyridin-3-yl)-1H-indazole] | 1150 |  | 4970
13 | CN1CCN(c2cccc3[nH]c(-c4n[nH]c5ccc(-c6cncc(NC(=O)C7CCCC7)c6)cc45)cc23)CC1 [Compound 246, N-(5-(3-(4-(4-Methylpiperazin-1-yl)-1H-indol-2-yl)-1H-indazol-5-yl)pyridin-3-yl)cyclopentanecarboxamide] | 186 |  | 1240
14 | CN1CCN(c2cccc3[nH]c(-c4n[nH]c5ccc(-c6cncnc6)cc45)cc23)CC1 [Compound 251, 3-(4-(4-Methylpiperazin-1-yl)-1H-indol-2-yl)-5-(pyrimidin-5-yl)-1H-indazole] | 152 |  | 1420
15 | CCC(=O)Nc1cncc(-c2ccc3[nH]nc(-c4cc5ccccc5[nH]4)c3c2)c1 [Compound 253, N-(5-(3-(1H-Indol-2-yl)-1H-indazol-5-yl)pyridin-3-yl)propionamide] | 233 |  | 160
16 | c1cncc(-c2ccc3[nH]nc(-c4cc5ccccc5[nH]4)c3c2)c1 [Compound 256, 3-(1H-Indol-2-yl)-5-(pyridin-3-yl)-1H-indazole] | 10 |  | 18

Row | SMILES | EC50 (IL-6) [nM] | inhibition at 10 µM (IL-6) [%] | EC50 [1] [nM]
17 | CCNCc1cncc(-c2ccc3[nH]nc(-c4cc5ccccc5[nH]4)c3c2)c1 [Compound 258, N-((5-(3-(1H-Indol-2-yl)-1H-indazol-5-yl)pyridin-3-yl)methyl)ethanamine] | 161 |  | 415
18 | O=C(Cc1ccccc1)Nc1cncc(-c2ccc3[nH]nc(-c4cc5ccccc5[nH]4)c3c2)c1 [Compound 262, N-(5-(3-(1H-Indol-2-yl)-1H-indazol-5-yl)pyridin-3-yl)-2-phenylacetamide] | > 10000 | 0 | 1560
19 | O=C(Nc1cncc(-c2ccc3[nH]nc(-c4cc5ccccc5[nH]4)c3c2)c1)c1ccccc1 [Compound 263, N-(5-(3-(1H-Indol-2-yl)-1H-indazol-5-yl)pyridin-3-yl)benzamide] | > 10000 | 0 | 380
20 | c1ccc2[nH]c(-c3n[nH]c4ccc(-c5cncc(CN6CCCC6)c5)cc34)cc2c1 [Compound 266, 3-(1H-Indol-2-yl)-5-(5-(pyrrolidin-1-ylmethyl)pyridin-3-yl)-1H-indazole] | 233 |  | 360
21 | c1ccc2[nH]c(-c3n[nH]c4ccc(-c5cncc(CN6CCCCC6)c5)cc34)cc2c1 [Compound 267, 3-(1H-Indol-2-yl)-5-(5-(piperidin-1-ylmethyl)pyridin-3-yl)-1H-indazole] | 1730 |  | 675
22 | CC(C)(C)CC(=O)Nc1cncc(-c2ccc3[nH]nc(-c4cc5ccccc5[nH]4)c3c2)c1 [Compound 268, N-(5-(3-(1H-Indol-2-yl)-1H-indazol-5-yl)pyridin-3-yl)-3,3-dimethylbutanamide] | > 10000 | 0 | 185
23 | O=C(Nc1cncc(-c2ccc3[nH]nc(-c4cc5ccccc5[nH]4)c3c2)c1)C1CCC1 [Compound 273, N-(5-(3-(1H-Indol-2-yl)-1H-indazol-5-yl)pyridin-3-yl) cyclobutanecarboxamide] | > 10000 | 44.3 | 685
24 | O=C(Nc1cncc(-c2ccc3[nH]nc(-c4cc5ccccc5[nH]4)c3c2)c1)C1CCCCC1 [Compound 275, N-(5-(3-(1H-Indol-2-yl)-1H-indazol-5-yl)pyridin-3-yl) cyclohexanecarboxamide] | > 10000 | 32.5 | 588
25 | CC(C)CC(=O)Nc1cncc(-c2ccc3[nH]nc(-c4cc5c(-c6ccsc6)cccc5[nH]4)c3c2)c1 [Compound 282, 3-Methyl-N-(5-(3-(4-(thiophen-3-yl)-1H-indol-2-yl)-1H-indazol-5-yl)pyridin-3-yl)butanamide] | 977 |  | 75
26 | CC(C)C(=O)Nc1cncc(-c2ccc3[nH]nc(-c4cc5c(-c6ccsc6)cccc5[nH]4)c3c2)c1 [Compound 289, N-(5-(3-(4-(Thiophen-3-yl)-1H-indol-2-yl)-1H-indazol-5-yl)pyridin-3-yl) isobutyramide] | > 10000 | 48.3 | 120
27 | c1ccc(-c2ccc3[nH]nc(-c4cc5c(-c6ccoc6)cccc5[nH]4)c3c2)nc1 [Compound 336, 3-(4-(Furan-3-yl)-1H-indol-2-yl)-5-(pyridin-2-yl)-1H-indazole] | 90 |  | 3910
28 | c1cncc(-c2ccc3[nH]nc(-c4cc5c(-c6cccs6)cccc5[nH]4)c3c2)c1 [Compound 340, 5-(Pyridin-3-yl)-3-(4-(thiophen-2-yl)-1H-indol-2-yl)-1H-indazole] | 18 |  | 74
29 | CN(C)Cc1cncc(-c2ccc3[nH]nc(-c4cc5c(-c6cccs6)cccc5[nH]4)c3c2)c1 [Compound 349, N,N-Dimethyl-1-(5-(3-(4-(thiophen-2-yl)-1H-indol-2-yl)-1H-indazol-5-yl)pyridin-3-yl)methanamine] | 233 |  | 169
30 | c1csc(-c2cccc3[nH]c(-c4n[nH]c5ccc(-c6ccncc6)cc45)cc23)c1 [Compound 354, 5-(pyridin-4-yl)-3-(4-(thiophen-2-yl)-1H-indol-2-yl)-1H-indazole] | 150 |  | 4940
31 | CC(C)(C)C(=O)Nc1cncc(-c2ccc3[nH]nc(-c4cc5c(-c6cc(F)cc(CNS(C)(=O)=O)c6)cccc5[nH]4)c3c2)c1 [Compound 484, N-(5-(3-(4-(3-Fluoro-5-(methylsulfonamidomethyl)phenyl)-1H-indol-2-yl)-1H-indazol-5-yl)pyridin-3-yl)pivalamide] | > 10000 | 24.2 | 115
